Tests used:
Assay type in all cases: cell-based
Candida albicans KF1 [1] = assay: Enhanced activity of azole antifungal agent, paper disc method; details: 100 μg, 27° C., 24 hours
Experimental: (§1) Enhanced activity of azole antifungal agent is determined by the following method. Candida albicans KF1 and Saccharomyces cerevisiae KF26 (ATCC 9763) were used. Candida albicans KF1 was cultured in Waksman broth (glucose 2.0%, peptone 0.5%, meat extract 0.5%, and NaCl 0.5%, pH 7.0) and Saccharomyces cerevisiae KF26 was cultured in potato broth (glucose 1.0%, peptone 0.5% and potato extract 100 ml). Both strains were cultured at 27° C. for 40 hours. Subsequently, each strain was inoculated in GY agar medium (glucose 1.0%, yeast extract 0.5% and agar 0.8%, pH 6.0). […]. Miconazole (Sigma Chemicals, Inc.) was used as the azole antifungal agent. […] Activities were assessed using paper disc ([…]: 8 mm, ADVANTEC Inc.). After being cultured at 27° C. for 24 hours, the diameter of the inhibitory zone was measured for each organism.

[2] = system: Saccharomyces cerevisiae KF26 (ATCC 9763); assay: as above; details: 100 μg, 27° C., 24 hours
Experimental: as §1

[3] = system: Bacillus subtilis KB27 (ATCC6633); assay: MIC, microbroth dilution method; details: ATCC6633, 24 h
[4] = system: Staphylococcus aureus KB210 (ATCC6538P); assay: MIC, microbroth dilution method; details: 24 h
[5] = system: Micrococcus luteus KB40 (ATCC9431); assay: MIC, microbroth dilution method; details: ATCC9431, 24 h
[6] = system: Mycobacterium smegmatis KB42 (ATCC607); assay: MIC, microbroth dilution method; details: Mycolicibacterium smegmatis, ATCC607, 24 h
[7] = system: Escherichia coli KB176 (IF012734); assay: MIC, microbroth dilution method; details: 24 h
[8] = system: Pseudomonas aeruginosa KB105 (IF03080); assay: MIC, microbroth dilution method; details: 24 h
[9] = system: Xanthomonas campestris pv. oryzae KB88; assay: microbe, parasite or virus in culture; details: 24 h
[10] = system: Acholeplasma laidlawii KB174; assay: MIC, microbroth dilution method; details: KB174, 24 h
Pyricularia oryzae KB180 = assay: microbe, parasite or virus in culture; details: KB180, 48 h
[11] = system: Aspergillus niger KB103 (ATCC6275); assay: MIC, microbroth dilution method; details: ATCC6275, 48 h
[12] = system: Mucor racemosus KF223 (IF04581); assay: MIC, microbroth dilution method; details: 24 h
Candida albicans KF1 [13] = assay: MIC, microbroth dilution method; details: KF1, 24 h
[14] = system: Saccharomyces cerevisiae KF26 (ATCC9763); assay: MIC, microbroth dilution method; details: ATCC9763, 24 h
[15] = miconazole 0.1 μg/ml added to GY agar
[16] = without addition of miconazole, GY agar

COC(=O)c1cc(OC)cc(OC)c1C(=O)c1coc(CC(C)OC(C)=O)cc1=O (centres unmarked) [FKI-0076 substance]
did not show an inhibitory ring: inhibitory ring (Candida albicans KF1 [1]; [16]) | inhibitory ring [2, 16]
25 mm: inhibition ring [2, 15]
> 125 µg/mL: MIC [3] | MIC [4] | MIC [5] | MIC [6] | MIC [7] | MIC [8] | MIC [9] | MIC [11] | MIC [12] | MIC (Candida albicans KF1 [13]) | MIC [14]
15 mm: inhibition ring (Candida albicans KF1 [1]; [15])
125 µg/mL: MIC [10] | MIC (Pyricularia oryzae KB180)

Source: patent US6790968B1, “Substance FKI-0076 and process for producing the same” (The Kitasato Institute, priority 2002, dated 2004)
